# Values quoted from earlier work, collected in patent publication US9198988B2, “Nanoparticulate manganese MRI contrast agents” (Kent State University, priority 2011, dated 2015).
# Key:
# [1] = commercial MRI contrast agents
# [2] = commercial MRI contrast agents; remark: listed apart in the source
LogKGdL (stability constant) [1],Structure (SMILES),r1 (relaxivity) [2] [mM⁻¹ s⁻¹]
23.2,O=C([O-])CN(CCN(CC(=O)[O-])CC(COP(=O)([O-])OC1CCC(c2ccccc2)(c2ccccc2)CC1)N(CC(=O)[O-])CC(=O)[O-])CC(=O)[O-].[Gd+3].[Na+].[Na+].[Na+] (centres unmarked) [Vasovist],19
20.8,O=C([O-])CN1CCN(CC(=O)[O-])CCN([C@H](CO)[C@H](O)CO)CCN(CC(=O)[O-])CC1.[Gd+3] (racemic) [Gadovist ®],5.3
25.3,CNC[C@H](O)[C@@H](O)[C@H](O)[C@H](O)CO.O=C([O-])CN1CCN(CC(=O)[O-])CCN(CC(=O)O)CCN(CC(=O)[O-])CC1.[Gd+3] [Dotarem ®],4.2
18.4,CNC[C@H](O)[C@@H](O)[C@H](O)[C@H](O)CO.CNC[C@H](O)[C@@H](O)[C@H](O)[C@H](O)CO.O=C([O-])CN(CCN(CC(=O)[O-])CC(=O)O)CCN(CC(=O)O)C(COCc1ccccc1)C(=O)[O-].[Gd+3] (centres unmarked) [MultiHance],6.7
23.5,CCOc1ccc(CC(CN(CCN(CC(=O)[O-])CC(=O)[O-])CC(=O)[O-])N(CC(=O)[O-])CC(=O)[O-])cc1.[Gd+3].[Na+].[Na+] (centres unmarked) [Primovist],7.3
–,CC(O)CN1CCN(CC(=O)[O-])CCN(CC(=O)[O-])CCN(CC(=O)[O-])CC1.[Gd+3] (centres unmarked) [ProHance ®],4.4
16.8,COCCNC(=O)CN(CCN(CCN(CC(=O)[O-])CC(=O)NCCOC)CC(=O)[O-])CC(=O)[O-].[Gd+3] [OptiMARK],5.2
22.2,CNC[C@H](O)[C@@H](O)[C@H](O)[C@H](O)CO.CNC[C@H](O)[C@@H](O)[C@H](O)[C@H](O)CO.O=C([O-])CN(CCN(CC(=O)[O-])CC(=O)O)CCN(CC(=O)[O-])CC(=O)O.[Gd+3] [Magnevist ®],4.3
16.8,CNC(=O)CN(CCN(CCN(CC(=O)[O-])CC(=O)NC)CC(=O)[O-])CC(=O)[O-].[Gd+3] [Omniscan ®],4.6
